Measurements published in patent publication US11596691B2, “Photoswitchable HDAC inhibitors” (The General Hospital Corporation, priority 2013, dated 2023).
“Also recorded” adds a separate entry of the source. One block for each compound: values may come before it.

Assays:
[1] = test system: acetylation of histone H3 Lysine 9; test: Acetylation of histone H3 Lysine 9 in live cells (biomarker for HDAC inhibition); format: cell-based; settings: immunofluorescent staining, with/without light
Source text: The activity of the compounds in live cells was validated using acetylation of histone H3 Lysine 9 as a biomarker for HDAC inhibition.

HDAC3 = target: T1, HDAC3 (Homo sapiens, UniProt O15379); test: Light-dependent HDAC3 biochemical assay (acetyl-lysine tripeptide based on acH4K12); settings: for inhibition of HDAC3 enzymatic activity: in the presence and absence of light
T1 construct: 40 μL of a stock solution of full-length HDAC protein at three times the desired final concentration
T1 sequence (O15379 whole entry): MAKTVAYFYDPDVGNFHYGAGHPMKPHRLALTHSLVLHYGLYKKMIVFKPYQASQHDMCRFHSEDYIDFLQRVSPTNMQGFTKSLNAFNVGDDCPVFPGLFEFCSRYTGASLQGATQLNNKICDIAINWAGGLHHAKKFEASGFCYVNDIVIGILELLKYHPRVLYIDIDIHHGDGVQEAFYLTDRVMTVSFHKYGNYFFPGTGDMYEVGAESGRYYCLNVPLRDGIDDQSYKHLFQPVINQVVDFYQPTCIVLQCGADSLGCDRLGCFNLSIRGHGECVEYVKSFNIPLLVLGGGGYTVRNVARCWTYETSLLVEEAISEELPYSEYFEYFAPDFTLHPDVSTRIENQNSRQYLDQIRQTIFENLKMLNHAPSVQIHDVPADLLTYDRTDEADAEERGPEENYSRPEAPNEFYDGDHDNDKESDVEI
T1 sequence (Q9Y618 395-489 partner limits assumed): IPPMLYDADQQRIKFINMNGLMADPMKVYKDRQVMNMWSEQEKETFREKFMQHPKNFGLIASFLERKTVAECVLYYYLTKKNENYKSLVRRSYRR
Procedure: (§1) Compounds were added to white 96-well plates containing 40 μL of HDAC assay buffer (50 mM HEPES, 100 mM KCl, 0.05% BSA, 0.001% Tween-20 at pH 7.4) by pin transfer. To the assay plate was added 40 μL of a stock solution of full-length HDAC protein at three times the desired final concentration. After addition the plate was centrifuged to mix the solution while removing air bubbles. […] After which, reads were taken every 15 minutes to follow the fluorogenic release of 7-amino-4-methylcoumarin from the substrate resulting from deacetylase and trypsin enzymatic activity. In between reads the LED excitation device was reaffixed on top of the plate ensuring maximum cis-isomer population. In parallel to this, a second plate was prepared identically and measured for activity but this plate was not excited by our device but rather was covered to prevent any ambient light from shining on the plate. Replicate pairs of plates were performed.

Absorbance spectra = format: physicochemical
Source text: Compounds were profiled physically to determine absorbance spectra, solubility and kinetics of photo-isomerization kinetics and thermal relaxation (where applicable). The compounds were then profiled biochemically to determine the HDAC inhibitory profile as a function of light exposure. Finally, selected compounds were profiled in cellular assays for the ability to induce hyperacetylation of histone proteins, which represents a biomarker readout for HDAC inhibition.
Compounds studied include those analogs with a push-pull azobenzene system (BG14, BG18, BG47, BG48 and BG49).
Physical characterization of the prototype inhibitors in PBS confirmed that all compounds strongly absorb light in the blue spectrum with maximum absorbance around 470 nm.

HDAC1-3 = test: HDAC IC50 assay with and without 470 nm light exposure; format: biochemical; settings: for change of inhibitory activity against HDAC1-3 on light exposure: with vs without exposure (including 1 hr pre-exposure) to 470 nm light
Procedure: as §1
The LED arrays were connected to a micro controller that was programmed to control individual LEDs, LED rows, or LED columns within the array. The controller allowed for modulation of LED intensity by controlling the on/off timing (PWM) or by directly controlling the supplied voltage. The temporal control was <10 ms. The LEDs and microcontroller were powered optionally by a power supply unit connected to a standard 110 V outlet or by a battery-pack, which allowed for use in a cell culture incubator. The LED array was used as lid to illuminate plates from the top and as a stage to illuminate the plates from the bottom, as required by the experimental setup.

[2] = Thermal relaxation (cis-to-trans) half-life measurement; settings: aqueous vs chloroform
HDAC enzyme = test: HDAC inhibitory activity as a function of light exposure time; format: biochemical; settings: continuous 470 nm light, measured in 15 min intervals
Procedure: The activation of the photoswitchable inhibitors depends on the light energy and the exposure time (as predicted by our model). […] Following pre-incubation of the HDAC enzyme and respective small molecule inhibitor, the enzyme substrate was added and the assay plate was continuously exposed to light (470 nm). Inhibitory activities were measured in 15 min intervals.

[3] = test system: acetylation of histone H3 Lysine 9 (H3K9Ac) in MCF7 cells; test: H3K9Ac pharmacodynamic marker in MCF7 cells; format: cell-based; settings: for histone acetylation above background: in the absence of light; for acetylation of H3K9 relative to vehicle control: in the presence of light
Source text: BG14, BG47 and BG48 were profiled in cell culture to assess cellular activity using acetylation of histone H3 Lysine 9 (H3K9Ac) as a pharmacodynamic marker for HDAC inhibition. […] H3K9 acetylation levels directly correlated with light exposure.

MCF7 cells = test: L1000 gene expression profiling / GSEA in MCF7 cells; format: cell-based
Procedure: In order to gain more quantitative insights into the specific genes regulated by the presented inhibitors, and to provide further evidence that the BG inhibitors elicit biological responses similar to the closely related, but light-independent HDAC inhibitors a high-throughput gene expression analysis was performed. Expression profiling was performed in quadruplicate using the L1000™ platform (Genometry, Inc.). Specifically MCF7 cells were treated with various compounds and the transcriptional changes were measured as a function of compound concentration, light exposure intensity, and treatment duration relative to the reference HDAC inhibitors CI994 and “Merck60”.
To assess BG14's nature as an HDAC inhibitor beyond its ability to modulate HDAC and histone acetylation levels, Gene Set Enrichment Analysis (GSEA) was performed between BG14 (max concentration, max amount of light) and the known HDAC inhibitor CI-994 (the same concentration) (FIG. 15D). Very remarkably, the Normalized Enrichment Score (NES) of 3.25 indicates a very high degree of similarity between both expression profiles. The identified 177 On-Target Gene List, (landmark genes regulated by light-dependent BG14_trans only), as well as the 68 Off-Target list (landmark genes regulated in absence of light by BG14_cis) were compared to the list of genes regulated by CI-994. […]

HDAC1 = target: T2, HDAC1 (Homo sapiens, UniProt Q13547); test: Half-life experiment (residence time on HDAC1 after light exposure); format: biochemical; settings: 520 nM, 1 hour 470 nm light, then dark 4, 8 and 17 hours; estimated
T2 construct: 40 μL of a stock solution of full-length HDAC protein at three times the desired final concentration
T2 sequence (Q13547 whole entry): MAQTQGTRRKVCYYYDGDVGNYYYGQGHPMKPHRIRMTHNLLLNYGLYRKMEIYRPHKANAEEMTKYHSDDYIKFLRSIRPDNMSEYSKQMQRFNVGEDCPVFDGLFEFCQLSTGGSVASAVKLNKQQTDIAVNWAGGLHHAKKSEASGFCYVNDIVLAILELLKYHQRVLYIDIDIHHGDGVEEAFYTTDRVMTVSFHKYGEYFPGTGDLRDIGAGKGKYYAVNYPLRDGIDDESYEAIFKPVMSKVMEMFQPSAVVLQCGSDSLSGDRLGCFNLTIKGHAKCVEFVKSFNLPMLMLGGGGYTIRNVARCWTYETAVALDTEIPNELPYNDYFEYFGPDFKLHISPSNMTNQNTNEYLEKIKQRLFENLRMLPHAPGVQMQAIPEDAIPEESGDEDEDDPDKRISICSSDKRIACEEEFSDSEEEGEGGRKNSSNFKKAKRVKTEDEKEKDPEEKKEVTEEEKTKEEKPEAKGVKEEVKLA
Procedure: To directly compare the residence time versus isoform relaxation time BG47 and BG48 were incubated with HDAC1 in alternating columns of a white 96-well plate. Columns 1 and 2 were exposed to 470 nm light (22.9V/0.2 A; 0.1 A per column) from LEDs using our excitation device 17 hours before the assay for 1 hour, resulting in 16 hours of relaxation time before the assay. Columns 3 and 4 were exposed to light 9 hours before the assay for 1 hour providing an 8 hour relaxation period and columns 5 and 6 were exposed 5 hours before the assay providing a 4 hour relaxation time point while columns 11 and 12 were used as controls with no pre-exposure. After the completion of the pre-exposure and relaxation time points a stock solution of trypsin and substrate was added to the plate. The plate was centrifuged and read using a Tecan Safire II every 2 minutes while keeping the plate inside the instrument, eliminating exposure to ambient light.
Both compounds were incubated at 520 nM with HDAC1, exposed for 1 hour of […] light and stored in the dark for 4, 8 and 17 hours, respectively, followed by addition of enzyme substrate. The activity was monitored in reference to unexposed compound with continuous readout measured over 2 hours, estimating a residence half-live of 12-24 hours.

Compound: CN(C)c1ccc(N=Nc2ccc(C(=O)Nc3ccccc3O)cc2)cc1 [BG49, 4-((4-(dimethylamino)phenyl)diazenyl)-N-(2-hydroxyphenyl)benzamides]
hyperacetylation of H3K9 relative to DMSO control [1]: statistically significant induced hyperacetylation of H3K9 relative to DMSO control was observed only following light exposure
inhibition of HDAC3 enzymatic activity (HDAC3): not targeted

Compound: Nc1ccccc1NC(=O)c1ccc(N=Nc2ccc(C(=O)O)cc2)cc1 [BG19, 4-((4-((2-aminophenyl)carbamoyl)phenyl)diazenyl)benzoic Acid]
absorbance range (Absorbance spectra): maximally absorbs in the UV range

Compound: CN(C)c1ccc(N=Nc2ccc(C(=O)Nc3ccccc3N)cc2)cc1 [BG14, N-(2-aminophenyl)-4-((4-(dimethylamino)phenyl)diazenyl)benzamide]
activity change as a function of light exposure time (HDAC enzyme): increased activity with increased exposure time
change of inhibitory activity against HDAC1-3 on light exposure (HDAC1-3): Significantly increased activity
histone acetylation above background [3]: No significant histone acetylation above background
acetylation of H3K9 relative to vehicle control [3]: strongly induced acetylation of H3K9
increase of H3K9 acetylation compared among the inhibitors ([3]; with light): strongest increase of H3K9 acetylation
absorbance range (Absorbance spectra): absorbed in the blue range of the visible spectrum
transcript levels of L1000 landmark genes (MCF7 cells; MCF7, absence of light): did not show any significant changes in transcript levels
expression levels of landmark genes (MCF7 cells; MCF7, increasing amounts of light): significant changes of expression levels of specific landmark genes
inhibition of HDAC3 enzymatic activity (HDAC3): potent light-dependent inhibitory activity; also recorded: also inhibits HDAC3
dependence of HDAC3 inhibitory activity on light exposure (HDAC3; varying average light exposure): directly proportional to the average light exposure

Compound: O=C(CCCCCCC(=O)Nc1ccccc1)NO [SAHA]
activity change as a function of light exposure time (HDAC enzyme): Only compound BG14 shows increased activity with increased exposure time

Compound: CN(C)c1ccc(N=Nc2ccc(C(=O)Nc3ccccc3O)cc2)cc1 [BG18, 4-((4-(dimethylamino)phenyl)diazenyl)-N-(2-hydroxyphenyl)benzamides]
change of inhibitory activity against HDAC1-3 on light exposure (HDAC1-3): Significantly increased activity
absorbance range (Absorbance spectra): absorbed in the blue range of the visible spectrum

Compound: Nc1ccccc1NC(=O)c1ccc(CNC(=O)OCc2cccnc2)cc1 [MS-275]
activity change as a function of light exposure time (HDAC enzyme): Only compound BG14 shows increased activity with increased exposure time

More lines, main results first:

inhibition of HDAC3 enzymatic activity (HDAC3): no differential activity
Compound: CC(=O)Nc1ccc(C(=O)Nc2ccccc2N)cc1 [CI-994, reference compound]
change of inhibitory activity against HDAC1-3 on light exposure (HDAC1-3): no differential activity

absorbance range (Absorbance spectra): maximally absorbs in the UV range
Compound: Nc1ccccc1NC(=O)c1ccc(N=Nc2ccccc2)cc1 [BG12, N-(2-aminophenyl)-4-(phenyldiazenyl)benzamide]

thermal relaxation faster than previous measurements in chloroform [2]: approximately 120 ×
Compound: CN(C)c1ccc(N=Nc2ccc(C(=O)O)cc2)cc1 [DABCYL]

residence time (HDAC1): 720 to 1440 min
Compound: CN(C)c1ccc(N=Nc2ccc(C(=O)Nc3cc(-c4ccccc4)ccc3N)cc2)cc1 [BG48, N-(4-amino-[1,1′-biphenyl]-3-yl)-4-((4-(dimethylamino)phenyl)diazenyl)benzamide]
HDAC isoform selectivity (HDAC1-3): HDAC1/2-selective
change of inhibitory activity against HDAC1-3 on light exposure (HDAC1-3): Significantly increased activity
histone acetylation above background [3]: No significant histone acetylation above background
acetylation of H3K9 relative to vehicle control [3]: strongly induced acetylation of H3K9
absorbance range (Absorbance spectra): absorbed in the blue range of the visible spectrum
inhibition of HDAC3 enzymatic activity (HDAC3): did not inhibit HDAC3 in the presence and absence of light

residence time (HDAC1): 720 to 1440 min
Compound: CN(C)c1ccc(N=Nc2ccc(C(=O)Nc3cc(-c4cccs4)ccc3N)cc2)cc1 [BG47, N-(2-amino-5-(thiophen-2-yl)phenyl)-4-((4-(dimethylamino)phenyl)diazenyl)benzamide]
HDAC isoform selectivity (HDAC1-3): HDAC1/2-selective
change of inhibitory activity against HDAC1-3 on light exposure (HDAC1-3): Significantly increased activity
histone acetylation above background [3]: No significant histone acetylation above background
acetylation of H3K9 relative to vehicle control [3]: strongly induced acetylation of H3K9
absorbance range (Absorbance spectra): absorbed in the blue range of the visible spectrum
inhibition of HDAC3 enzymatic activity (HDAC3): did not inhibit HDAC3 in the presence and absence of light
